Source: patent US20240239741A1, “META-ESTER AROMATIC DIAMINES, METHOD FOR PRODUCING SAME, AND POLYIMIDE HAVING SAID META-ESTER AROMATIC DIAMINES AS RAW MATERIAL” (SEIKA CORPORATION, priority 2021, published 2024)
Like-named read-outs stand apart in the source and are kept apart here.

Assay: Solubility of Diamine in various kinds of solvents
Assay type: physicochemical
Details: for solubility: organic solvent or mixture, thermodynamic from solid, Sample 30 mg/solvent 2 mL
Experimental: Melting points and solubilities in various kinds of solvents of the diamines obtained in the above-described Examples and Comparative Examples are shown in Table 1 below. In the following Table 1, the evaluation +++ indicates soluble at room temperature, the evaluation ++ indicates soluble by heating, the evaluation + indicates half-soluble by heating, and the evaluation − indicates insoluble in solvent.
Sample 30 mg/solvent 2 mL, the evaluation +++ indicates soluble at room temperature, the evaluation ++ indicates soluble by heating, the evaluation + indicates half-soluble by heating, and the evaluation − indicates insoluble.

[1] = MC (methyl cellosolve), MC (methyl cello solve), read-out: Solubility in MC
[2] = Acetone, read-out: Solubility in Acetone
[3] = Acetonitrile, read-out: Solubility in Acetonitrile
[4] = Chloroform, read-out: Solubility in Chloroform
[5] = DMF (N,N-dimethylformamide), read-out: Solubility in DMF
[6] = DMSO (dimethylsulfoxide), read-out: Solubility in DMSO
[7] = Ethyl acetate, read-out: Solubility in Ethyl acetate
[8] = Isopropanol, read-out: Solubility in Isopropanol
[9] = Methanol, read-out: Solubility in Methanol
[10] = THF, read-out: Solubility in THF
[11] = Toluene, read-out: Solubility in Toluene
[12] = m-cresol, read-out: Solubility in m-cresol

Structure (SMILES)	solubility [1]	solubility [2]	solubility [3]	solubility [4]	solubility [5]	solubility [6]	solubility [7]	solubility [8]	solubility [9]	solubility [10]	solubility [11]	solubility [12]	Solubility in the various kinds of solvents (in words)
Nc1cccc(C(=O)Oc2ccc(S(=O)(=O)c3ccc(OC(=O)c4cccc(N)c4)cc3)cc2)c1 [Example 4, bis[4-(3-aminobenzoyloxy)phenyl]sulfone]	< 15 mg/mL	< 15 mg/mL	< 15 mg/mL	< 15 mg/mL	> 15 mg/mL	> 15 mg/mL	< 15 mg/mL	< 15 mg/mL	< 15 mg/mL	< 15 mg/mL	< 15 mg/mL	> 15 mg/mL	–
Nc1ccc(C(=O)Oc2ccc(OC(=O)c3ccc(N)cc3)cc2)cc1 [Com. Ex. 1, 1,4-bis(4-aminobenzoyloxy)benzene, reference compound]	< 15 mg/mL	< 15 mg/mL	< 15 mg/mL	< 15 mg/mL	< 15 mg/mL	< 15 mg/mL	< 15 mg/mL	< 15 mg/mL	–	< 15 mg/mL	< 15 mg/mL	< 15 mg/mL	hot-dissolved only in DMF
Cc1cc(OC(=O)c2cccc(N)c2)ccc1OC(=O)c1cccc(N)c1 [Example 6, 1-methyl-2,5-bis(3-aminobenzoyloxy)benzene]	> 15 mg/mL	> 15 mg/mL	> 15 mg/mL	> 15 mg/mL	> 15 mg/mL	> 15 mg/mL	> 15 mg/mL	< 15 mg/mL	< 15 mg/mL	> 15 mg/mL	< 15 mg/mL	> 15 mg/mL	–
Nc1cccc(C(=O)Oc2ccc(C(c3ccc(OC(=O)c4cccc(N)c4)cc3)(C(F)(F)F)C(F)(F)F)cc2)c1 [Example 2, 2,2′-bis[4-(3-aminobenzoyloxy)phenyl]hexafluoropropane]	> 15 mg/mL	> 15 mg/mL	> 15 mg/mL	< 15 mg/mL	> 15 mg/mL	> 15 mg/mL	> 15 mg/mL	< 15 mg/mL	> 15 mg/mL	> 15 mg/mL	< 15 mg/mL	> 15 mg/mL	easily dissolved in various solvents

The next lines start with results.

solubility [1]	solubility [2]	solubility [3]	solubility [4]	solubility [5]	solubility [6]	solubility [7]	solubility [8]	solubility [9]	solubility [10]	solubility [11]	solubility [12]	Structure (SMILES)	Solubility in the various kinds of solvents (in words)
> 15 mg/mL	> 15 mg/mL	> 15 mg/mL	> 15 mg/mL	> 15 mg/mL	> 15 mg/mL	> 15 mg/mL	< 15 mg/mL	< 15 mg/mL	> 15 mg/mL	< 15 mg/mL	> 15 mg/mL	Cc1cc(OC(=O)c2cccc(N)c2)c(C)c(C)c1OC(=O)c1cccc(N)c1 [Example 8, 1,2,4-trimethyl-3,6-bis(3-aminobenzoyloxy)benzene]	–
< 15 mg/mL	< 15 mg/mL	< 15 mg/mL	< 15 mg/mL	> 15 mg/mL	< 15 mg/mL	< 15 mg/mL	< 15 mg/mL	< 15 mg/mL	< 15 mg/mL	< 15 mg/mL	< 15 mg/mL	Cc1cc(OC(=O)c2ccc(N)cc2)ccc1OC(=O)c1ccc(N)cc1 [Com. Ex. 2, 2,5-bis(4-aminobenzoyloxy)toluene, reference compound]	hot-dissolved barely in a high-polar solvent
